Active and inactive are the calls of the source. No rule for the calls is given here.
Biological target: Nuclear receptor coactivator 3 (Homo sapiens) (UniProt Q9Y6Q9)
Test: NCOA3-driven reporter transcription inhibition – cell-based, luminescence reporter, selectivity assay for SRC1 inhibitor project, late-stage follow-up (AID 651797)
Settings: human cells, SRC3 luminescence reporter, dose response

Chain of Nuclear receptor coactivator 3 (Homo sapiens) (Q9Y6Q9 whole entry, looked up): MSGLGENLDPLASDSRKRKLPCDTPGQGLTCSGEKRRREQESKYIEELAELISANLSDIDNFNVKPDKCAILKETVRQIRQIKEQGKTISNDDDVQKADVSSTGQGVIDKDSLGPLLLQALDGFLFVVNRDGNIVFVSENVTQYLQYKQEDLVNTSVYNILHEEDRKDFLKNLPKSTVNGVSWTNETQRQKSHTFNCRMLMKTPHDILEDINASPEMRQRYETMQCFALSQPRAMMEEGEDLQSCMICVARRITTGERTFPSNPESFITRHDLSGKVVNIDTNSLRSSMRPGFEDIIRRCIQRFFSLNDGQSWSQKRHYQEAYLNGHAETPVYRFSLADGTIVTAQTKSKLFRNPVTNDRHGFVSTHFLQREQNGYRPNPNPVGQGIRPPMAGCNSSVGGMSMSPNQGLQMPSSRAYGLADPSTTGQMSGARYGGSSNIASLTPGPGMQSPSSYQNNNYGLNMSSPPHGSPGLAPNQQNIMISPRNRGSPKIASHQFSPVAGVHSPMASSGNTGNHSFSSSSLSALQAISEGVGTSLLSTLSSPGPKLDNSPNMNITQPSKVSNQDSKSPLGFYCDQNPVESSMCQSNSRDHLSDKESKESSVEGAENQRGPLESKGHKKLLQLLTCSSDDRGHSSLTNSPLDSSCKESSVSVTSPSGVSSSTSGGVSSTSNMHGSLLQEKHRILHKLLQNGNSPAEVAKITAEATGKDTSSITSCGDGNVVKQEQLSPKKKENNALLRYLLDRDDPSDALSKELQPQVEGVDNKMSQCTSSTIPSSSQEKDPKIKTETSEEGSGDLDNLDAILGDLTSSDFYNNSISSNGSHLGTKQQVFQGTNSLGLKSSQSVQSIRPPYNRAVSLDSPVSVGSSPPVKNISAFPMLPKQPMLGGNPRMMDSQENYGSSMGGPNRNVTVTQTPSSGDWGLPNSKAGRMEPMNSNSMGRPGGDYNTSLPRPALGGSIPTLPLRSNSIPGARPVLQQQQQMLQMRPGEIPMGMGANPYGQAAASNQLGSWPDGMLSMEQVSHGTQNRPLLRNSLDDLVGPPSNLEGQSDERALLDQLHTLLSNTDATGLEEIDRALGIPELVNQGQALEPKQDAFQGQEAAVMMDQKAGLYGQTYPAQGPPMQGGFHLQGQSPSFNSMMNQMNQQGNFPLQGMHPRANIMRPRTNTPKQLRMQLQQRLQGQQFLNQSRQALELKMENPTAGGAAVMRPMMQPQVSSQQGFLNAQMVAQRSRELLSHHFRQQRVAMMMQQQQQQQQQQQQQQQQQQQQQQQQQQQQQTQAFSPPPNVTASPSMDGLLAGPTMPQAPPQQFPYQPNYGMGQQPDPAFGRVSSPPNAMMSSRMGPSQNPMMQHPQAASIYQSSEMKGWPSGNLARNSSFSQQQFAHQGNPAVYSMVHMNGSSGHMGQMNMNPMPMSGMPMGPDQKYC

Structure (SMILES)	IC50
COc1ccc(Nc2ncnc3ccc(Br)cc23)c(OC)c1	inactive
COc1cc([C@@H]2c3cc4c(cc3C(OC3OC5COC(C)OC5C(O)C3O)C3COC(=O)[C@@H]32)OCO4)cc(OC)c1O (stereo partly drawn)	0.69 µM
COc1ccc(NC(=O)CN(C)C(=O)C2(c3ccccc3)CCCC2)cc1	8.22 µM

Reference: PubChem BioAssay AID651797 (The Scripps Research Institute Molecular Screening Center, 2012)
